Where two headings read alike, the source gives them in different places.
How the values were obtained:
[1] = tested on: plasma proteins; assay: In vitro plasma protein binding (rapid equilibrium dialysis); format: in vitro ADME; conditions: pH 7.4, dog plasma, 160, 400 and 1600 ng/ml (0.4, 1, 4 µM), 37°C, mean values
Method: Equilibrium dialysis studies were performed using the Rapid Equilibrium Dialysis (RED) devices (Waters et al., [2008]) that consist of two chambers separated with a dialysis membrane with a cut‐off of 8.0 kDa (Pierce Biotechnology, ThermoFisher Scientific). The plasma protein binding was determined with blank canine plasma spiked with enflicoxib or its pyrazol metabolite. The highly bound compound tolterodine was used as a positive control. Stock solutions of the tested compounds were prepared at 10 mM concentration in DMSO and were immediately used or stored at −20 °C (±5°C) until further use.
Samples were prepared by spiking dog plasma with the compounds at three increasing concentrations (0.4 µM, 1 µM and 4 µM). Plasma samples were loaded (200 µl) in the donor chambers while the opposite chamber contained 350 µl of dialysis buffer (0.1 M phosphate buffer, pH 7.4). Dialysis was run at 37°C for 4 h with continuous shaking. […] The unbound fractions for enflicoxib or its pyrazol metabolite were determined by LC‐MS/MS using a modification of the previously described method. […]
The percent of binding to plasma proteins was calculated as: %Protein binding = (Cdonor‐Cacceptor)/Cdonor∗100. where: Cdonor = Concentration in the donor chamber after dialysis; Cacceptor = Concentration in the acceptor chamber after dialysis. […]
For each plasma sample, protein binding was determined in triplicate.

[2] = In vitro blood to plasma partitioning; conditions: female, Beagle, dog, whole blood
Method: Whole blood was obtained from 3 untreated female Beagle dogs (located in Isoquimen SL, Sant Feliu de Codines, Barcelona, Spain) and pooled into two different batches. Lithium heparin was used as anticoagulant. Blood was maintained in a rotator shaker at room temperature before use.
The derived working solutions were freshly prepared each day of experimentation.
The haematocrit (H), percent of total blood cells in whole blood samples (v/v), was determined before the assay. […] The samples were incubated separately (n = 3) at ca 37°C for 60 min under gentle agitation in a rotator shaker in polypropylene tubes. The concentration of organic solvent in the incubates was kept below 0.05% to prevent haemolysis. Reference plasma was incubated similarly in Eppendorf protein LoBind tubes as a surrogate matrix of whole blood to assess total drug concentration (Cb).
For the enflicoxib and pyrazol metabolite determination, the plasma specimens were mixed with AcN containing the internal standard celecoxib for protein precipitation (1:3 ratio plasma: solution). […] After centrifugation, the supernatants were diluted with 0.1% FA in water: AcN (90:10) and injected into the LC‐MS/MS system. […] Blank samples were processed as described before, and were used to check the selectivity and carry‐over of the LC‐MS/MS analytical runs.
The quantification of each test item in plasma was performed using calibration curves ranging from 0.05 to 20 µg/ml. […] In both cases, the LC‐MS/MS response ratios (peak area of analyte/peak area Internal Standard) were used for quantitation.
The analyte concentration obtained from LC‐MS/MS analysis in each sample was used to calculate the blood‐plasma concentration ratio (C b/C p) as follows:
C b/C p = [(concentration in reference plasma; Equivalent to concentration in whole blood) / (concentration in plasma from whole blood)].
From these values, the red blood cells (RBC) to plasma ratio (K RBC/PL) was also calculated using the following equation: KRBC/PL=1/H×Cb/Cp‐1+1 where H: haematocrit.

[3] = tested on: COX‐2; conditions: in vitro and in vivo; ref Iñiguez et al., 2010; Wagemakers et al., 2009; cited from earlier work
[4] = design: method as in Ecuphar/Animalcare internal data; conditions: ref Ecuphar/Animalcare internal data; cited from earlier work
[5] = Single intravenous dose pharmacokinetic study
Method: (§1) For the IV administration, a stable 2 mg/ml enflicoxib injectable solution was prepared in a vehicle containing 20% ethanol, 8% kolliphor HS‐15 and 72% water, and sterilised using a ≤0.22‐µm syringe filter. To avoid administering an excessive volume of product, dogs in the IV group received a single dose of 2 mg/kg and were followed for 35 days. A 22‐gauge ¾” catheter was introduced into the cephalic vein, using aseptic technique. A syringe with sterile saline was used to test the patency of the vein. The calculated volume of the solution was slowly administered through the catheter over approximately 1 min. Approximately 1–2 ml of sterile saline was used to flush the catheter following drug administration.
(§2) Blood samples (2 ml) were collected from the jugular vein in K3EDTA tubes for determination of plasma concentrations of enflicoxib and its metabolites, at the following time points:
(§3) Blood samples were centrifuged within 30 min after collection at 2500 g for 10 min at ca. +5 °C. The resultant plasma was divided into 2 aliquots and frozen at ca. −20°C until analysis.
(§4) Method for enflicoxib and its pyrazol metabolite in plasma involved its extraction from 100 µL samples by solid phase extraction (Oasis MCX 30 μm 96‐well plates, 10 mg; Waters) and separated by reverse‐phase liquid chromatography on a Luna PFP (2) column (3 μm, 50 × 4.6 mm; Phenomenex), in gradient mode elution using 0.1% FA in water and MeOH 60:40 (v/v) as mobile phase flushed a flow rate of 1 ml/min. Celecoxib was used as internal standard.
(§5) The pharmacokinetic parameters were obtained from the individual plasma concentration‐time profiles of enflicoxib or its metabolites in each animal, by non‐compartmental analysis using Phoenix® WinNonLin® software (version 8.0. Pharsight Corporation). For all calculations, values below lower limit of quantification (BLLOQ) were considered as “0” except trailing concentrations, which were excluded from calculations.
(§6) Additional pharmacokinetic parameters calculated for the IV treatment were plasma clearance (CL) as CL = Dose/AUCinf; volume of distribution at steady‐state (Vss) as Vss = MRTINF × CL; volume of distribution based on the terminal phase (Vz) as Vz = CL/ λz); and Mean resident time (MRT) was calculated as MRT = AUMC/AUC, with AUMC being the area under the first moment curve. For enflicoxib, C0 was calculated as the extrapolated plasma concentration at time zero after IV administration.

[6] = Single oral dose pharmacokinetic study, fed or fasted; conditions: for bioavailability / half-life / Tmax: both, Beagle, dog, plasma; for bioavailability: F% (absolute oral bioavailability); for Tmax: single oral 8 mg/kg enflicoxib, median [min-max]
Source text: (§7) Thirty healthy Beagle dogs (males and females) of 1–5 years old at the time of dosing, and bodyweight between 7.4 and 12.3 kg, were housed indoors in climate‐controlled facilities in accordance with accepted laboratory animal care and use guidelines. As the animals belonged to the same centre, they were acclimatised for 5 days before study initiation.
(§8) Dogs were offered approximately 400 g of pelleted canine feed once daily. Fresh potable water was offered ad libitum. All dogs, except those in the Oral‐Fed group, were fasted overnight before dosing and food was offered after the 4‐h blood collection. Dogs in the Oral‐Fed group were supplied with 50% of their daily food ration approximately 1 h before administration, and the remainder of the food was given after the first 15‐min blood collection period post administration.
(§9) The oral groups received a single oral nominal dose of 8 mg/kg of enflicoxib (Daxocox® tablets for dogs, Ecuphar/Animalcare) in its final formulation and were followed for 126 days. The dog’s mouth was opened, the dose placed towards the back of the tongue, and 5 ml of water was administered following the dose to aid in swallowing.
as §2
(§10) Oral groups: Before administration (pre‐dose; Day 1 to Day 0), 15 and, 30 min, 1, 2, 4, 6, 8, 12, 24, 48 h and 3, 4, 6, 7, 10, 14, 21, 28, 42, 56, 70, 84, 98, 112, and 126 days post administration, with the aim to characterise the complete pharmacokinetic profile of the pyrazol metabolite.
as §3
(§11) Plasma concentrations of enflicoxib and its metabolites were measured by two HPLC methods coupled with MS/MS detection (MRM) in negative ion electrospray mode.
as §4, §5

[7] = Distribution into synovial fluid after IV administration; conditions: day 35 after IV 2 mg/kg enflicoxib
Source text: (§12) The distribution into synovial fluid was prospectively investigated in samples corresponding to the last collection timepoint after the IV administration.
(§13) Samples of synovial fluid from the 10 dogs in the IV group were obtained under anaesthesia at 35 days post administration. Blank synovial fluid was obtained from 8 non‐dosed dogs at the same study facilities and pooled before being used for preparation of calibration curve and quality control samples for the qualification of the bioanalytical method.
(§14) Method for hydroxylated pyrazoline metabolite in plasma and for enflicoxib, pyrazol metabolite and hydroxylated pyrazoline metabolite in synovial fluid used the protein‐precipitation technique for extraction from dog samples (50 µl). The analytes were separated by reverse‐phase liquid chromatography on a Kinetex F5 100 Å column (100 × 3.0 mm; Phenomenex), in gradient mode elution using 0.1% FA in water and MeOH as mobile phase flushed a flow rate of 0.75 ml/min. Celecoxib was also used as internal standard.
(§15) For synovial fluid samples, the ratio of synovial fluid to plasma for enflicoxib and its metabolites was calculated at day 35 after IV administration.

[8] = Multiple dose oral toxicokinetic (target animal safety) study; conditions: for AUC / Cmax: both, Beagle, dog, plasma, po; for AUC: AUC168, group 1X; for accumulation ratio, loading dose normalised to maintenance dose: weeks 13 and 31 vs week 1, all dose levels
Source text: (§16) This study was designed as a Target Animal Safety (TAS) study, to assess the effects of repeated oral administrations of enflicoxib at either the recommended dose (1X), three times the dose (3X) or five times the dose (5X), that were compared to an untreated group (placebo, 0X) and followed the internationally agreed TAS guideline (VICH GL[43], [2008]). Blood samples were taken during the study to assess the dose‐exposure proportionality after single and repeated dose administrations.
(§17) Thirty‐two male and female healthy Beagle dogs, 8–10 months old and experimentally naïve, were obtained from a laboratory animal supplier. All animals were acclimatised for 28 days before study initiation. All dogs were housed in pairs of the same sex and dose group in indoor pens under temperature and humidity‐controlled conditions (15 to 24°C, 40–70% RH). Artificial lighting was provided for approximately 12 h per day. […] For each group, periods of exercise and socialisation were permitted daily. Animals were fed daily with 400 g of a certified commercial pelleted diet.
(§18) Dogs were stratified by sex and weight, (16 males weighing 6.7–9.9 kg and 16 females weighing 5.3–7.0 kg) and allocated to four groups (0X, 1X, 3X and 5X) using a pseudo‐random body weight stratification procedure, which yielded groups of four dogs of each sex with approximately equal mean body weight. Dogs were distributed in a block of several adjacent pens and identified by a microchip inserted shortly after arrival.
(§19) Enflicoxib was supplied as commercial Daxocox® tablets containing 15, 30, 45, 70 or 100 mg of enflicoxib (Ecuphar/Animalcare). The number and size of the tablets administered orally were calculated weekly based on the most recent body weights and the target dose level required. Tablets were administered once weekly, for a total of 13 weeks (5X group) or 32 weeks (0X, 1X and 3X groups). Tablets administration was followed by 10–20 ml tap water to facilitate passage of drug to the stomach.
(§20) Blood samples were collected as described for the determination of blood concentrations of enflicoxib and its pyrazol metabolite. The sampling schedule was at 6 h (on week 1 only), 24, 48, 72, 96, 120, 144 and 168 h post dose in weeks 1, 13 and 31, Additionally, weekly samples were taken prior to each dose throughout the study. Plasma was obtained and stored as described before.
(§21) The AUCt and AUCinf values were calculated with linear trapezoidal rule, and the extrapolation of AUCt to obtain AUCinf was performed using the observed concentration at the last time point. Due to the limited time between doses, the terminal rate constants (λz), and corresponding terminal half‐lives (t1/2), were calculated only for the parent compound. […] The accumulation ratios, based on AUC168 values of both compounds, were calculated at weeks 13 (last experimental week for the 5X group) and 31 (last experimental week for the other groups).
(§22) For the repeated oral dose study, analyses of variance were performed for week 1 and week 13 data separately, including all three dose levels to assess dose proportionality. For weeks 13 and 31, the analysis was done for the low and mid dose levels only, adjusted to 1 mg/kg. The factors in these analyses were dose group, time, sex and their interactions. Animal was included as a blocking factor since the same animals were bled on each sampling day. The data were logarithmically transformed prior to its analysis using SAS 9.4 (SAS Institute (2002) SAS OnlineDoc® Version Nine. SAS Institute Inc.).

[9] = dog, in vivo
Source text: as §7, §8, §9, §2, §10, §3, §11, §4, §5

[10] = dog, in vivo, iv, 2 mg/kg
Method: as §1, §2, §3, §4, §5, §6

[11] = dog, in vivo, iv, 2 mg/kg; remark: listed apart in the source
Source text: as §12, §13, §14, §15

[12] = dog, in vivo; remark: listed apart in the source
Source text: as §16, §17, §18, §19, §20, §21, §22

[13] = both, Beagle, dog, plasma, iv, 2 mg/kg

NS(=O)(=O)c1ccc(N2N=C(C(F)(F)F)C[C@H]2c2ccc(F)cc2F)cc1 (racemic) [Enflicoxib, 4‐(5‐(2,4‐difluorophenyl)‐3‐(trifluoromethyl)‐4,5‐dihydro‐1H‐pyrazol‐1‐yl) benzenesulfonamide]
fraction unbound at 4 h [1]: 0.0099 to 0.0262
blood plasma ratio at 60 min, 1 µg/ml [2]: 1.07
blood plasma ratio at 60 min, 5 µg/ml [2]: 0.66
blood plasma ratio at 60 min, 15 µg/ml [2]: 0.66
inhibition of COX‐2 enzymatic activity [3]: potent inhibitors
solubility in water [4]: practically insoluble
t1/2 ([5]; IV 2 mg/kg enflicoxib, harmonic mean [min-max], pyrazol metabolite n=4): 19.77 [11.2–29.7] h
Vd [5, 13]: 4 L/kg
clearance [5, 13]: 2.33 mL/min/kg
half-life ([5]; both, Beagle, dog, plasma, iv, 2 mg/kg, t1/2, IV 2 mg/kg enflicoxib, harmonic mean [min-max], pyrazol metabolite n=4): 20 h
bioavailability ([6]; oral, 8 mg/kg, oral 8 mg/kg fasted vs IV 2 mg/kg): 44%
bioavailability ([6]; oral, 8 mg/kg, oral 8 mg/kg fed vs IV 2 mg/kg): 63%
half-life ([6]; other: IV or oral, whatever the feeding condition, terminal elimination half‐life (t1/2), all routes of administration (IV or oral, whatever the feeding condition)): 20 h
bioavailability ([6]; po, 8 mg/kg, oral 8 mg/kg fed vs IV 2 mg/kg): 63.4%
Tmax ([6]; po, 8 mg/kg, fasted): 4 h
Tmax ([6]; po, 8 mg/kg, fed): 2 h
half-life ([6]; po, 8 mg/kg, t1/2, single oral 8 mg/kg enflicoxib, fasted, harmonic mean): 18.3 h
half-life ([6]; po, 8 mg/kg, t1/2, single oral 8 mg/kg enflicoxib, fed, harmonic mean): 19.7 h
F% (absolute oral bioavailability) ([6]; oral 8 mg/kg fasted vs IV 2 mg/kg): 44.1%
increase of extent of absorption and plasma exposure by food ([6]; oral 8 mg/kg, fed vs fasted): 43%
Frel% (relative oral bioavailability) ([6]; oral fed vs oral fasted, 8 mg/kg): 143.3%
synovial fluid concentration [7]: BLLOQ
tolerability ([8]; all three dose levels (1X, 3X, 5X), weekly oral, all dogs): well tolerated
AUC ([8]; 4 mg/kg, week 13, mean ± SD): 47600 ng·h/mL
AUC ([8]; 4 mg/kg, week 31, mean ± SD): 64000 ng·h/mL
Cmax ([8]; 4 mg/kg, group 1X (8 + 4 mg/kg weekly oral), week 1, mean ± SD, n=8): 2020 ± 461 ng/mL
Cmax ([8]; 4 mg/kg, group 1X, week 13, mean ± SD): 878 ± 319 ng/mL
Cmax ([8]; 4 mg/kg, group 1X, week 31, mean ± SD): 1450 ± 374 ng/mL
AUC ([8]; 8 mg/kg, week 1, mean ± SD): 87900 ng·h/mL
Cmax ([8]; 12 mg/kg, group 3X, week 13, mean ± SD): 2760 ± 817 ng/mL
Cmax ([8]; 12 mg/kg, group 3X, week 31, mean ± SD): 3380 ± 1120 ng/mL
Cmax ([8]; 20 mg/kg, group 5X (40 + 20 mg/kg), week 1, mean ± SD): 9590 ± 2040 ng/mL
Cmax ([8]; 20 mg/kg, group 5X, week 13, mean ± SD): 4390 ± 1050 ng/mL
Cmax ([8]; 24 mg/kg, group 3X (12 + 24 mg/kg as printed), week 1, mean ± SD): 6050 ± 1390 ng/mL
Normalised accumulation ratio ([8]; group 1X, week 13 vs week 1, based on AUC168): 0.93
Normalised accumulation ratio ([8]; group 1X, week 31 vs week 1): 1.05
Normalised accumulation ratio ([8]; group 3X, week 13 vs week 1): 0.9
Normalised accumulation ratio ([8]; group 3X, week 31 vs week 1): 1.15
Normalised accumulation ratio ([8]; group 5X, week 13 vs week 1): 1
time of Cmax ([8]; week 1 after loading dose, all groups, 6 h = first sampling time): 6 h
pre‐dose plasma concentration ([8]; week 13, all groups): below 100 ng/ml
correlation coefficient, adjusted PK parameters (Cmax, AUC168) vs dose level ([8]; weeks 1 and 13, actual doses, linear regression): higher than 0.8
accumulation ratio, loading dose normalised to maintenance dose [8]: ~1
accumulation ratio, loading dose normalised to maintenance dose ([8]; listed as parent compound): less than 1
accumulation ratio based on AUC168 (not normalised) ([8]; weeks 13 and 31 vs week 1, all three dose levels): approximately 0.5

NS(=O)(=O)c1ccc(-n2nc(C(F)(F)F)cc2-c2ccc(F)cc2F)cc1 [Pyrazol metabolite]
F% (absolute oral bioavailability) [9]: 49.3%
mean terminal elimination half‐life (t½) [9]: 408 h
terminal elimination half‐life (t1/2) [9]: 336 to 406 h
AUCinf ([9]; po, 8 mg/kg): 4,22,700 ± 2,54,500 (60.2) ng·h/ml
AUClast ([9]; po, 8 mg/kg): 3,91,500 ± 2,55,100 (65.2) ng·h/ml
Cmax ([9]; po, 8 mg/kg): 890.3 ± 551.3 (61.9) ng/ml
Tmax ([9]; po, 8 mg/kg): 120.00 [48.00–336.00] h
Tmax, oral doses (fed and fasted), median ([9]; po, 8 mg/kg): 120 to 144 h
t1/2 ([9]; po, 8 mg/kg): 353.9 [255–491] h
AUClast [10]: 1,56,500 ± 39,810 (25.4) ng·h/ml
Cmax [10]: 384.5 ± 123.8 (32.2) ng/ml
MRTlast [10]: 329.5 ± 27.46 (8.3) h
Tmax [10]: 96 [48–96] h
ratio synovial fluid versus plasma [11]: 0.031-0.078
accumulation ratio between weeks 13 and 31, range of dogs [12]: 0.56-1.49
accumulation ratio week 31 vs week 13 [12]: around 1.3
correlation coefficient, adjusted PK parameters (Cmax, AUC168) vs dose level [12]: > 0.9
inhibition of COX‐2 enzymatic activity [3]: potent inhibitors

From paper PMC9291756, “Pharmacokinetics of enflicoxib in dogs: Effects of prandial state and repeated administration” (Journal of Veterinary Pharmacology and Therapeutics, 2021)
